Measurements from patent US9549942B2, “Composition for preventing or treating degenerative brain diseases including compound downregulating expression of BACE1 proteins” (RESEARCH & BUSINESS FOUNDATION SUNGKYUNKWAN UNIVERSITY, priority 2013, dated 2017).

Assays:
[1] = test system: BACE1 promoter; experiment: BACE1 promoter activity, BACE1 promoter-luciferase vector, Dual-Luciferase assay; format: cell-based; conditions: Homo sapiens; SH-SY5Y transfected with BACE1 promoter-luciferase vector, 10 μM for 24 hours; read-out: decrease of BACE1 promoter activity
Procedure: A BACE1 promoter-luciferase vector was transfected to brain nerve cells (SH-SY5Y). […] A change in a BACE1 promoter activity was measured using a Dual-Luciferase assay kit.

[2] = test system: 3×Tg-AD mice; experiment: Morris water maze test, learning ability, Alzheimer's dementia animal model; format: in vivo, mouse; conditions: 25 mg/kg orally every day for 4 weeks, on the third and fourth days
Procedure: (§1) As an Alzheimer's dementia animal model, 3×Tg-AD mice were used. The 3×Tg-AD mouse is a mouse having overexpressed presenilin, amyloid precursor protein (APP), and Tau genes, which are frequently found in Alzheimer's dementia. The 3×Tg-AD mouse is an animal model that is widely used for research on Alzheimer's dementia (Oddo S. et al, 2003, Neuron, 39, 409-421). 25 mg/kg of chlorhexidine was orally administered every day for 4 weeks; and 0.1 mg/kg and 0.5 mg/kg of thioguanosine were orally administered every day for 8 weeks to 6-month old 3×Tg-AD mice. A Morris water maze test was used to evaluate the effects of chlorhexidine and thioguanosine administration on the mice. […] In this configuration, a treated or control subject was placed into the water with its head towards a water tank wall surface, and a time was recorded for the length of time taken for finding the escape platform. […] After 15 minutes, the mouse was placed into the water again, a subsequent time taken for finding the escape platform was recorded, and a change in the learning ability was determined. This procedure was performed over four days, and the result of change in learning ability was measured. […]

[3] = test system: BACE1 proteins; experiment: BACE1 protein expression in brain of Alzheimer's dementia animal model (Western blot); format: in vivo; conditions: 3×Tg-AD mouse, 25 mg/kg orally every day for 4 weeks
Procedure: (§2) As an Alzheimer's dementia animal model, 3×Tg-AD mice were used. The 3×Tg-AD mouse is a mouse having overexpressed presenilin, amyloid precursor protein (APP), and Tau genes, which are frequently found in Alzheimer's dementia. The 3×Tg-AD mouse is an animal model that is widely used for research on Alzheimer's dementia (Oddo S. et al, 2003, Neuron, 39, 409-421). 25 mg/kg of chlorhexidine was orally administered every day for 4 weeks; and 0.1 mg/kg and 0.5 mg/kg of thioguanosine were orally administered every day for 8 weeks to 6-month old 3×Tg-AD mice. A Morris water maze test was used to evaluate the effects of chlorhexidine and thioguanosine administration on the mice.
From the 3×Tg-AD mouse to which chlorhexidine was administered in Example 4a brain was extracted. The extracted brain was lysed using a tissue lysis buffer and RNA was extracted using Trizol. The amount of BACE1 expression was determined by Western blot and real-time PCR. FIGS. 18 and 19 show the results.

[4] = test system: BACE1 mRNA; experiment: BACE1 mRNA under oxidative stress (HNE) conditions of brain nerve cells (real-time PCR); format: cell-based, human; conditions: SH-SY5Y cells pretreated 24 hours at 1, 5 and 10 μM, then HNE
Procedure: In order to determine an influence of chlorhexidine and thioguanosine of the present disclosure on an amount of BACE1 expression under oxidative stress conditions of brain nerve cells, the following experiment was performed.
Brain nerve cells, SH-SY5Y cells, were pretreated with chlorhexidine and thioguanosine at 1 μM, 5 μM, and 10 μM for 24 hours. Then, an oxidative stress substance HNE (4-hydroxynonenal) was applied to the SH-SY5Y cells, and a change in the amount of BACE1 proteins was determined by Western blot. A change in an amount of BACE1 mRNA was determined by real-time PCR.
In this regard, in FIGS. 9 and 10, asterisks (**) indicate a significant (p≦0.01) increase of BACE1 mRNA expression relative to control. Similarly, number signs (##) indicate a significant (p≦0.01) decrease, and number signs (###) indicate a significant (p≦0.001) decrease in BACE1 mRNA expression relative to oxidative stress conditions.

[5] = Body weights and weights of organs (potential toxicity); conditions: mouse, in vivo, po, 25 mg/kg
Procedure: as §2
In order to evaluate potential toxicity of chorhexidine, the body weights and weights of organs were measured for treatment and vehicle subjects.

[6] = test system: 3×Tg-AD mice; experiment: Morris water maze, platform removed on fifth day (memory); format: in vivo, mouse; conditions: 25 mg/kg orally every day for 4 weeks, 60 seconds
Procedure: as §1

[7] = test system: Aβ; experiment: Generation of Aβ in brain cortex, immuno staining; format: in vivo; conditions: 3×Tg-AD mouse, 25 mg/kg orally every day for 4 weeks
Procedure: as §2
From the 3×Tg-AD mouse to which chlorhexidine was administered in Example 4a brain was extracted. A […] frozen section was prepared from the extracted brain using a microtome. Then, generation of Aβ was measured using immuno staining or a human amyloid 13 (1-40) assay kit (IBL) and a human amyloid β (1-42) assay kit (IBL). FIGS. 20 and 21 show the results.

[H]/N=C(\N/C(=N/[H])NCCCCCCNC(=N)NC(=N)Nc1ccc(Cl)cc1)Nc1ccc(Cl)cc1 [chlorhexidine, N′,N′″″-hexane-1,6-diylbis[N-(4-chlorophenyl)(imidodicarbonimidic diamide)]]
inhibition at 10 µM [1]: ≥ 50% | learning ability for finding the platform (Morris water maze) [2]: faster learning ability for finding the platform than a control group | expression of BACE1 proteins in brain [3]: lower expression of BACE1 proteins than that of the control group | increase in the amount of BACE1 mRNA due to oxidative stress [4]: decreased at 1 μM and at 5 μM | toxicity [5]: no toxicity was determined | memory: time in target quadrant after platform removed [6]: spent the majority of time in the location in which the platform was formerly placed | generation of Aβ in cortex part of brain [7]: lower generation of Aβ than that of the control group
